From PubChem BioAssay (NCI)
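Briefly, cells in 96-well plates were exposed to five compound concentrations for 48 h, and endpoints were estimated by linear interpolation. GI50 marks 50% less growth. TGI marks complete inhibition of growth.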

Key:
Assay in all cases: growth of human tumour cells (NCI), 48 h
NCI/ADR-RES ovarian = system: NCI/ADR-RES ovarian
786-0 renal = system: 786-0 renal
HCT-116 colon = system: HCT-116 colon
UACC-62 melanoma = system: UACC-62 melanoma
SK-MEL-5 melanoma = system: SK-MEL-5 melanoma
NCI-H460 lung = system: NCI-H460 lung
SF-295 CNS = system: SF-295 CNS
MDA-MB-435 = system: MDA-MB-435
COLO 205 colon = system: COLO 205 colon
HOP-92 NSCLC = system: HOP-92 NSCLC
LOX IMVI melanoma = system: LOX IMVI melanoma
NCI-H522 lung = system: NCI-H522 lung
NCI-H23 lung = system: NCI-H23 lung
HS 578T breast = system: HS 578T breast
CCRF-CEM leukemia = system: CCRF-CEM leukemia
SN12C renal = system: SN12C renal
SR leukemia = system: SR leukemia
BT-549 breast = system: BT-549 breast
CAKI-1 renal = system: CAKI-1 renal
HL-60(TB) leukemia = system: HL-60(TB) leukemia
MDA-MB-231 breast = system: MDA-MB-231 breast
RPMI-8226 leukemia = system: RPMI-8226 leukemia
MOLT-4 leukemia = system: MOLT-4 leukemia
OVCAR-8 ovarian = system: OVCAR-8 ovarian
SK-OV-3 ovarian = system: SK-OV-3 ovarian
SF-268 CNS = system: SF-268 CNS
NCI-H226 lung = system: NCI-H226 lung
A498 renal = system: A498 renal
PC-3 prostate = system: PC-3 prostate
SNB-75 CNS = system: SNB-75 CNS
HCC-2998 colon = system: HCC-2998 colon
OVCAR-4 ovarian = system: OVCAR-4 ovarian
MALME-3M melanoma = system: MALME-3M melanoma
OVCAR-5 ovarian = system: OVCAR-5 ovarian
U251 CNS = system: U251 CNS
ACHN renal = system: ACHN renal
TK-10 renal = system: TK-10 renal
DU-145 prostate = system: DU-145 prostate
SW-620 colon = system: SW-620 colon
SNB-19 CNS = system: SNB-19 CNS
HOP-62 NSCLC = system: HOP-62 NSCLC
HT29 colon = system: HT29 colon
A549 NSCLC = system: A549 NSCLC
OVCAR-3 ovarian = system: OVCAR-3 ovarian
RXF 393 renal = system: RXF 393 renal
KM12 colon = system: KM12 colon
SK-MEL-28 melanoma = system: SK-MEL-28 melanoma
SK-MEL-2 melanoma = system: SK-MEL-2 melanoma
IGROV1 ovarian = system: IGROV1 ovarian
M14 melanoma = system: M14 melanoma
UACC-257 melanoma = system: UACC-257 melanoma
K-562 leukemia = system: K-562 leukemia
T-47D breast = system: T-47D breast
HCT-15 colon = system: HCT-15 colon
SF-539 CNS = system: SF-539 CNS
MCF7 breast = system: MCF7 breast
UO-31 renal = system: UO-31 renal

## Cn1cc(C2=C(c3cn(CCCSC(=N)N)c4ccccc34)C(=O)NC2=O)c2ccccc21
NCI/ADR-RES ovarian
  GI50: > 25 µM
  TGI: > 25 µM
786-0 renal
  GI50: 4.71 µM
  TGI: 10.9 µM
HCT-116 colon
  GI50: 1.1 µM
  TGI: 4.62 µM
UACC-62 melanoma
  GI50: 2.54 µM
  TGI: 5.7 µM
SK-MEL-5 melanoma
  GI50: 1.56 µM
  TGI: 4.27 µM
NCI-H460 lung
  GI50: 3.65 µM
  TGI: 7.54 µM
SF-295 CNS
  GI50: 5.19 µM
  TGI: 14.1 µM
MDA-MB-435
  GI50: 1.81 µM
  TGI: 5.59 µM
COLO 205 colon
  GI50: 0.668 µM
  TGI: 1.92 µM
HOP-92 NSCLC
  GI50: 3.83 µM
  TGI: 11.2 µM
LOX IMVI melanoma
  GI50: 1.91 µM
  TGI: 5.45 µM
NCI-H522 lung
  GI50: 1.51 µM
  TGI: 5.27 µM
NCI-H23 lung
  GI50: 3.32 µM
  TGI: 9.72 µM
HS 578T breast
  GI50: 1.91 µM
  TGI: 9.96 µM
CCRF-CEM leukemia
  GI50: 0.971 µM
  TGI: 3.93 µM
SN12C renal
  GI50: 1.83 µM
  TGI: 5.56 µM
SR leukemia
  GI50: 0.585 µM
  TGI: 1.69 µM
BT-549 breast
  GI50: 4.83 µM
  TGI: 10.8 µM
CAKI-1 renal
  GI50: 7.68 µM
  TGI: 23.4 µM
HL-60(TB) leukemia
  GI50: 0.789 µM
  TGI: 2.14 µM
MDA-MB-231 breast
  GI50: 2.11 µM
  TGI: 9.52 µM
RPMI-8226 leukemia
  GI50: 4.61 µM
  TGI: 10.3 µM
MOLT-4 leukemia
  GI50: 1.93 µM
  TGI: 8.08 µM
OVCAR-8 ovarian
  GI50: 4 µM
  TGI: 11.4 µM
SK-OV-3 ovarian
  GI50: 5 µM
  TGI: 15.4 µM
SF-268 CNS
  GI50: 1.76 µM
  TGI: 7.52 µM
NCI-H226 lung
  GI50: 1.49 µM
  TGI: 7.29 µM
A498 renal
  GI50: 5 µM
  TGI: 12 µM
PC-3 prostate
  GI50: 3.38 µM
  TGI: 11.1 µM
SNB-75 CNS
  GI50: 0.674 µM
  TGI: 4.33 µM
HCC-2998 colon
  GI50: 3.05 µM
  TGI: 8.89 µM
OVCAR-4 ovarian
  GI50: 3.23 µM
  TGI: 9.88 µM
MALME-3M melanoma
  GI50: 3.84 µM
  TGI: 8.34 µM
OVCAR-5 ovarian
  GI50: 4.51 µM
  TGI: 18.6 µM
U251 CNS
  GI50: 1.61 µM
  TGI: 5.06 µM
ACHN renal
  GI50: 4.42 µM
  TGI: 9.31 µM
TK-10 renal
  GI50: 3.88 µM
  TGI: 10.7 µM
DU-145 prostate
  GI50: 4.78 µM
  TGI: 12.5 µM
SW-620 colon
  GI50: 1.66 µM
  TGI: 5.51 µM
SNB-19 CNS
  GI50: 1.4 µM
  TGI: 8.99 µM
HOP-62 NSCLC
  GI50: 2.36 µM
  TGI: 7.39 µM
HT29 colon
  GI50: 2.73 µM
  TGI: 11.1 µM
A549 NSCLC
  GI50: 4.73 µM
  TGI: 12.9 µM
OVCAR-3 ovarian
  GI50: 2.4 µM
  TGI: 9.28 µM
RXF 393 renal
  GI50: 1.18 µM
  TGI: 2.82 µM
KM12 colon
  GI50: 2.07 µM
  TGI: 5.97 µM
SK-MEL-28 melanoma
  GI50: 1.3 µM
  TGI: 4.48 µM
SK-MEL-2 melanoma
  GI50: 1.53 µM
  TGI: 5.2 µM
IGROV1 ovarian
  GI50: 3.03 µM
  TGI: 12.3 µM
M14 melanoma
  GI50: 3.56 µM
  TGI: 7.77 µM
UACC-257 melanoma
  GI50: 3.22 µM
  TGI: 6.73 µM
K-562 leukemia
  GI50: 2.67 µM
  TGI: 6.78 µM
T-47D breast
  GI50: 1.11 µM
  TGI: 5.12 µM
HCT-15 colon
  GI50: 4.71 µM
  TGI: 11.1 µM
SF-539 CNS
  GI50: 1.9 µM
  TGI: 5.16 µM
MCF7 breast
  GI50: 0.799 µM
  TGI: 3 µM
UO-31 renal
  GI50: 5.59 µM
  TGI: 16.2 µM
